Assay results published in patent publication US10208033B2, “β-carboline, dihydro-β-carboline and tetrahydro-β-carboline alkaloid derivatives and preparation methods same and use in aspects of preventing and treating plant viruses, fungicides and insecticides” (NANKAI UNIVERSITY, priority 2013, dated 2019).

How the values were obtained:
[1] = test system: cucumber fusarium wilt; experiment: Fungicidal (bactericidal) activity in vitro, PDA colony diameter; type: cell-based; details: 50 mg/kg
[2] = test system: Rhizoctonia cereali; experiment: as above; type: cell-based; details: 50 mg/kg
[3] = test system: mosquito larvae; experiment: whole plant or invertebrate; details: 24 h
Outline: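 Compound dissolved in acetone (or other solvent) to a 1000 ppm stock and diluted in water to 5 ppm. Ten Culex pipiens pallens larvae at the start of the fourth instar, laboratory-reared, added per beaker; solvent-only aqueous control.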

[4] = test system: corn borers; experiment: whole plant or invertebrate; details: read-out: Corn borer Mortality (%)
[5] = test system: tobacco mosaic virus (TMV); experiment: Anti-TMV in vivo therapeutic effect; set-up: species or system tobacco mosaic virus (host Nicotiana tabacum L.cv.Xanthi NN)
[6] = test system: Bipolaria maydis; experiment: organism not typed; type: cell-based; details: for Bactericidal activity (%) Bipolaria maydis: 50 mg/kg
[7] = test system: Phytophthora capsici; experiment: Fungicidal (bactericidal) activity in vitro, PDA colony diameter; type: cell-based; details: 50 mg/kg
[8] = test system: Fusarium fujikuroi; experiment: as above; type: cell-based; details: 50 mg/kg
[9] = test system: Colletotrichum orbiculare; experiment: as above; type: cell-based; details: 50 mg/kg
[10] = test system: Cercospora arachidicola; experiment: as above; type: cell-based; details: 50 mg/kg
[11] = test system: Macrophoma kawatsukai; experiment: as above; type: cell-based; details: 50 mg/kg
[12] = test system: Alternaria solani; experiment: as above; type: cell-based; details: 50 mg/kg
[13] = test system: Rhizoctonia solani; experiment: as above; type: cell-based; details: 50 mg/kg
[14] = test system: tobacco mosaic virus (TMV); experiment: Anti-TMV in vitro effect (half-leaf soaking); type: cell-based, tobacco mosaic virus (host Nicotiana tabacum L.cv.Xanthi NN)
[15] = test system: armyworms; type: in vivo; details: concentration 600 mg/kg
[16] = test system: Botrytis cinerea; experiment: Fungicidal (bactericidal) activity in vitro, PDA colony diameter; type: cell-based; details: 50 mg/kg
[17] = test system: tobacco mosaic virus (TMV); experiment: Anti-TMV in vivo inactivation; set-up: species or system tobacco mosaic virus (host Nicotiana tabacum L.cv.Xanthi NN)
[18] = test system: tobacco mosaic virus (TMV); experiment: Anti-TMV in vivo protective effect; set-up: species or system tobacco mosaic virus (host Nicotiana tabacum L.cv.Xanthi NN)
[19] = test system: cotton bollworms; experiment: whole plant or invertebrate; details: for Cotton bollworm Mortality (%): concentration 600 mg/kg
Description: Experimental method of cotton bollworms: feed and drug mixing method: measure 3 mL of prepared solution and add it to about 27 g of newly prepared feed, thereby obtaining needed concentration through dilution by 10 times.

[20] = test system: potato late blight; experiment: microbe, parasite or virus in culture; type: cell-based
[21] = test system: Sclerotinia scleotiorum; experiment: Fungicidal (bactericidal) activity in vitro, PDA colony diameter; type: cell-based; details: 50 mg/kg
[22] = test system: Fusarium graminearumt; experiment: microbe, parasite or virus in culture; type: cell-based; details: for Bactericidal activity (%) Fusarium graminearumt: 50 mg/kg
[23] = test system: tobacco mosaic virus (TMV); experiment: Anti-TMV activity, overall statements on Table 1; type: in vivo, tobacco mosaic virus (host Nicotiana tabacum L.cv.Xanthi NN); details: 100 μg/mL versus ningnanmycin at 100 μg/mL
[24] = test system: corn borers; details: concentration 600 mg/kg

C[C@@H]1N[C@H](C(=O)NCN(C)C)Cc2c1[nH]c1ccccc21 [Ib-19, (1S, 3S)—N-((dimethylamino)methyl)-1-methyl-2,3,4,9-tetrahydro-pyridino [3,4-b] indol-3-formamide]
inhibition of growth at 50 mg/kg ([1]; Fusarium, 96 h): 19.2%
inhibition of growth at 50 mg/kg ([2]; Rhizoctonia, 96 h): 47.1%
mortality at 10 mg/kg ([3]; Culex pipiens, read-out: Mosquito larvae Mortality (%)): 20%
mortality at 600 mg/kg [4]: 10%
inhibition at 100 µg/mL ([5]; Tobacco mosaic virus, treatment dose 100 μg/mL, read-out: Relative inhibition rate (%) In vivo therapy): 0%
inhibition at 500 µg/mL ([5]; Tobacco mosaic virus, treatment dose 500 μg/mL, read-out: Relative inhibition rate (%) In vivo therapy): 20.9%
inhibition at 50 mg/kg ([6]; read-out: Bactericidal activity (%) Bipolaria maydis): 24%
inhibition of growth at 50 mg/kg ([7]; Phytophthora capsici, 96 h): 7.9%
inhibition of growth at 50 mg/kg ([8]; Fusarium fujikuroi, 96 h): 21.4%
inhibition of growth at 50 mg/kg ([9]; Colletotrichum orbiculare, 96 h): 25.9%
inhibition of growth at 50 mg/kg ([10]; Mycosphaerella arachidis, 96 h): 41.2%
inhibition at 50 mg/kg [11]: 55.6%
inhibition of growth at 50 mg/kg ([12]; Alternaria solani, 96 h): 25%
inhibition of growth at 50 mg/kg ([13]; Rhizoctonia solani, 96 h): 26.3%
inhibition at 100 µg/mL ([14]; Tobacco mosaic virus, treatment dose 100 μg/mL, read-out: Relative inhibition rate (%) In vitro activity): 0%
inhibition at 500 µg/mL ([14]; Tobacco mosaic virus, treatment dose 500 μg/mL, read-out: Relative inhibition rate (%) In vitro activity): 26.6%
Armyworm Mortality (%) [15]: 5%
inhibition of growth at 50 mg/kg ([16]; Botrytis cinerea, 96 h): 27.3%
inhibition at 100 µg/mL ([17]; Tobacco mosaic virus, treatment dose 100 μg/mL, read-out: Relative inhibition rate (%) In vivo inactivation): 0%
inhibition at 500 µg/mL ([17]; Tobacco mosaic virus, treatment dose 500 μg/mL, read-out: Relative inhibition rate (%) In vivo inactivation): 18.5%
inhibition at 100 µg/mL ([18]; Tobacco mosaic virus, treatment dose 100 μg/mL, read-out: Relative inhibition rate (%) In vivo protection): 0%
inhibition at 500 µg/mL ([18]; Tobacco mosaic virus, treatment dose 500 μg/mL, read-out: Relative inhibition rate (%) In vivo protection): 24.7%
mortality at 600 mg/kg ([19]; Helicoverpa armigera, in Gossypium hirsutum, read-out: Cotton bollworm Mortality (%)): 60%
inhibition of growth at 50 mg/kg ([20]; Phytophthora infestans, 96 h, read-out: Bactericidal activity (%) potato late blight): 20%
inhibition of growth at 50 mg/kg ([21]; Sclerotinia, 96 h): 35.3%
inhibition of growth at 50 mg/kg ([22]; Fusarium, 96 h, read-out: Bactericidal activity (%) Fusarium graminearumt): 27.6%

C[C@@H]1N[C@H](C(=O)NN=Cc2ccc3c(c2)OCO3)Cc2c1[nH]c1ccccc21 [Ic-12]
Bactericidal activity (%) Cucumber fusarium wilt [1]: 31.8%
Bactericidal activity (%) Rhizoctonia cereali [2]: 86.5%
Mosquito larvae Mortality (%) ([3]; concentration 10 mg/kg): 15%
anti-TMV activity compared with ningnanmycin [23]: equivalent to the activity of commercial variety ningnanmycin
Corn borer Mortality (%) [24]: 15%
Relative inhibition rate (%) In vivo therapy ([5]; treatment dose 100 μg/mL): 30.2%
Relative inhibition rate (%) In vivo therapy ([5]; treatment dose 500 μg/mL): 69%
Bactericidal activity (%) Bipolaria maydis [6]: 56.0%
Bactericidal activity (%) Phytophthora capsici [7]: 81.8%
Bactericidal activity (%) Fusarium fujikuroi [8]: 58.8%
Bactericidal activity (%) Colletotrichum orbiculare [9]: 48.0%
Bactericidal activity (%) Cercospora arachidicola [10]: 63.6%
Bactericidal activity (%) Macrophoma kawatsukai [11]: 63.6%
Bactericidal activity (%) Alternaria solani [12]: 52.4%
Bactericidal activity (%) Rhizoctonia solani [13]: 50.0%
Relative inhibition rate (%) In vitro activity ([14]; treatment dose 100 μg/mL): 29.1%
Relative inhibition rate (%) In vitro activity ([14]; treatment dose 500 μg/mL): 72.6%
Armyworm Mortality (%) [15]: 15%
Bactericidal activity (%) Botrytis cinerea [16]: 88.9%
Relative inhibition rate (%) In vivo inactivation ([17]; treatment dose 100 μg/mL): 33.6%
Relative inhibition rate (%) In vivo inactivation ([17]; treatment dose 500 μg/mL): 74.5%
Relative inhibition rate (%) In vivo protection ([18]; treatment dose 100 μg/mL): 35.8%
Relative inhibition rate (%) In vivo protection ([18]; treatment dose 500 μg/mL): 68.1%
Cotton bollworm Mortality (%) [19]: 30%
Bactericidal activity (%) potato late blight [20]: 39.1%
Bactericidal activity (%) Sclerotinia scleotiorum [21]: 44.2%
Bactericidal activity (%) Fusarium graminearumt [22]: 53.8%

C[C@@H]1N[C@H](C(=O)NN=Cc2cccs2)Cc2c1[nH]c1ccccc21 [Ic-20, (1S, 3S)—N′-(thiophene-2-methylene)-1-methyl-2,3,4,9-tetrahydropyridino [3,4-b] indol-3-formylhydrazine]
Bactericidal activity (%) Cucumber fusarium wilt [1]: 26.9%
Bactericidal activity (%) Rhizoctonia cereali [2]: 72.5%
Mosquito larvae Mortality (%) ([3]; concentration 10 mg/kg): 75%
anti-TMV activity compared with ningnanmycin [23]: equivalent to the activity of commercial variety ningnanmycin
Corn borer Mortality (%) [24]: 30%
Relative inhibition rate (%) In vivo therapy ([5]; treatment dose 100 μg/mL): 25.1%
Relative inhibition rate (%) In vivo therapy ([5]; treatment dose 500 μg/mL): 52.3%
Bactericidal activity (%) Bipolaria maydis [6]: 44.0%
Bactericidal activity (%) Phytophthora capsici [7]: 68.4%
Bactericidal activity (%) Fusarium fujikuroi [8]: 28.6%
Bactericidal activity (%) Colletotrichum orbiculare [9]: 44.4%
Bactericidal activity (%) Cercospora arachidicola [10]: 47.1%
Bactericidal activity (%) Macrophoma kawatsukai [11]: 55.6%
Bactericidal activity (%) Alternaria solani [12]: 45.0%
Bactericidal activity (%) Rhizoctonia solani [13]: 46.1%
Relative inhibition rate (%) In vitro activity ([14]; treatment dose 100 μg/mL): 23%
Relative inhibition rate (%) In vitro activity ([14]; treatment dose 500 μg/mL): 58.5%
Armyworm Mortality (%) [15]: 35%
Bactericidal activity (%) Botrytis cinerea [16]: 72.7%
Relative inhibition rate (%) In vivo inactivation ([17]; treatment dose 100 μg/mL): 29.6%
Relative inhibition rate (%) In vivo inactivation ([17]; treatment dose 500 μg/mL): 59.1%
Relative inhibition rate (%) In vivo protection ([18]; treatment dose 100 μg/mL): 31.8%
Relative inhibition rate (%) In vivo protection ([18]; treatment dose 500 μg/mL): 61.3%
Cotton bollworm Mortality (%) [19]: 20%
Bactericidal activity (%) potato late blight [20]: 36.0%
Bactericidal activity (%) Sclerotinia scleotiorum [21]: 88.2%
Bactericidal activity (%) Fusarium graminearumt [22]: 62.1%

CC(=NNC(=O)[C@@H]1Cc2c([nH]c3ccccc23)[C@H](C)N1)C(C)(C)C [Ic-28, (1S, 3S)—N′-(3,3-dimethyl-2-butylidene)-1-methyl-2,3,4,9-tetrahydropyridino [3,4-b] indol-3-formylhydrazine]
Bactericidal activity (%) Cucumber fusarium wilt [1]: 4.5%
Bactericidal activity (%) Rhizoctonia cereali [2]: 48.6%
Mosquito larvae Mortality (%) ([3]; concentration 5 mg/kg): 20%
Mosquito larvae Mortality (%) ([3]; concentration 10 mg/kg): 100%
anti-TMV activity compared with ningnanmycin [23]: equivalent to the activity of commercial variety ningnanmycin
Corn borer Mortality (%) [24]: 40%
Relative inhibition rate (%) In vivo therapy ([5]; treatment dose 100 μg/mL): 16.7%
Relative inhibition rate (%) In vivo therapy ([5]; treatment dose 500 μg/mL): 55.4%
Bactericidal activity (%) Bipolaria maydis [6]: 28.0%
Bactericidal activity (%) Phytophthora capsici [7]: 18.2%
Bactericidal activity (%) Fusarium fujikuroi [8]: 23.5%
Bactericidal activity (%) Colletotrichum orbiculare [9]: 32.0%
Bactericidal activity (%) Cercospora arachidicola [10]: 36.4%
Bactericidal activity (%) Macrophoma kawatsukai [11]: 36.4%
Bactericidal activity (%) Alternaria solani [12]: 14.3%
Bactericidal activity (%) Rhizoctonia solani [13]: 8.3%
Relative inhibition rate (%) In vitro activity ([14]; treatment dose 100 μg/mL): 25.6%
Relative inhibition rate (%) In vitro activity ([14]; treatment dose 500 μg/mL): 58.1%
Armyworm Mortality (%) [15]: 45%
Bactericidal activity (%) Botrytis cinerea [16]: 41.7%
Relative inhibition rate (%) In vivo inactivation ([17]; treatment dose 100 μg/mL): 21.3%
Relative inhibition rate (%) In vivo inactivation ([17]; treatment dose 500 μg/mL): 59.7%
Relative inhibition rate (%) In vivo protection ([18]; treatment dose 100 μg/mL): 18.9%
Relative inhibition rate (%) In vivo protection ([18]; treatment dose 500 μg/mL): 56.8%
Cotton bollworm Mortality (%) [19]: 45%
Bactericidal activity (%) potato late blight [20]: 30.4%
Bactericidal activity (%) Sclerotinia scleotiorum [21]: 3.8%
Bactericidal activity (%) Fusarium graminearumt [22]: 53.8%
